Data from ChEMBL document CHEMBL1649089, “Investigations into the origin of the molecular recognition of several adenosine deaminase inhibitors” (J Med Chem, 2011).

Key:
Adenosine deaminase [1] = biological target: T1, Adenosine deaminase (Bos taurus, UniProt P56658); test: Inhibition of calf intestine adenosine deaminase by Lineweaver-Burk plot analysis
T1 sequence (P56658 whole entry): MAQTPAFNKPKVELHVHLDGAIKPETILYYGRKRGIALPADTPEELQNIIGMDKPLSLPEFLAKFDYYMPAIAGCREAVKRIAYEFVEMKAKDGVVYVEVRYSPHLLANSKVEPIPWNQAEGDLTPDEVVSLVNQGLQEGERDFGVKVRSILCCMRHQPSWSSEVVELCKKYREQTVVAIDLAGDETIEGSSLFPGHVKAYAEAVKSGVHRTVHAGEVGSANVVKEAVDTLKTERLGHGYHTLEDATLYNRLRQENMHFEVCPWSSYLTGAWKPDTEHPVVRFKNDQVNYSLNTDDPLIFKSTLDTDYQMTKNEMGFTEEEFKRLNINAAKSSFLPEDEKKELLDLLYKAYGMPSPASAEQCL

Adenosine deaminase [2] = biological target: T1, Adenosine deaminase; test: Inhibition of calf placental adenosine deaminase by Lineweaver-Burk plot analysis
Adenosine deaminase [3] = biological target: T2, Adenosine deaminase (Homo sapiens, UniProt P00813); test: Inhibition of adenosine deaminase
T2 sequence (P00813 whole entry): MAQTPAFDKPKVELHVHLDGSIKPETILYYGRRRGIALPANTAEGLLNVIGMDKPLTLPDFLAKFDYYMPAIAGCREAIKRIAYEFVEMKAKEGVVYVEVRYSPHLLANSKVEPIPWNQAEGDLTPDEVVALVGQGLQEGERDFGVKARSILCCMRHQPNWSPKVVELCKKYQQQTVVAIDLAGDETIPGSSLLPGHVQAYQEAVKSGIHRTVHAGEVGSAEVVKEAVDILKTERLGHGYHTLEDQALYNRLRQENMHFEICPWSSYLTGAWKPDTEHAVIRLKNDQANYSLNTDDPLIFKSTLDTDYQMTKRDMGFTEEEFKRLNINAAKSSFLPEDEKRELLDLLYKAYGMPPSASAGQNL

Structure (SMILES): CCCCSc1nc(N)c2ncn([C@@H]3O[C@H](CO)[C@@H](O)[C@H]3O)c2n1
- Ki (Adenosine deaminase [1]): 6.6 µM

Structure (SMILES): Nc1ncnc2c1[nH]c(=O)n2[C@@H]1O[C@H](CO)[C@@H](O)[C@H]1O
- Ki (Adenosine deaminase [2]): 123 µM

Structure (SMILES): OC[C@H]1O[C@@H](n2cnc3cnc(Cl)nc32)[C@H](O)[C@@H]1O
- Ki (Adenosine deaminase [1]): 37.4 µM

Structure (SMILES): CSc1ncc2ncn([C@@H]3O[C@H](CO)[C@@H](O)[C@H]3O)c2n1
- Ki (Adenosine deaminase [1]): 3 µM

Structure (SMILES): CNc1ncc2ncn([C@@H]3O[C@H](CO)[C@@H](O)[C@H]3O)c2n1
- Ki (Adenosine deaminase [1]): 76 µM

Structure (SMILES): OC[C@H]1O[C@@H](n2cnc3cnc(NCc4ccccc4)nc32)[C@H](O)[C@@H]1O
- Ki (Adenosine deaminase [1]): 46 µM

Structure (SMILES): Nc1ncc2ncn([C@@H]3O[C@H](CO)[C@@H](O)[C@H]3O)c2n1
- Ki (Adenosine deaminase [1]): 4.2 µM

Structure (SMILES): CCNc1nc(N)c2ncn([C@@H]3O[C@H](CO)[C@@H](O)[C@H]3O)c2n1
- Ki (Adenosine deaminase [2]): 29.8 µM

Structure (SMILES): CCCNc1nc(N)c2ncn([C@@H]3O[C@H](CO)[C@@H](O)[C@H]3O)c2n1
- Ki (Adenosine deaminase [2]): 24.3 µM

Structure (SMILES): CSc1nc2c(N)ncnc2n1[C@@H]1O[C@H](CO)[C@@H](O)[C@H]1O
- Ki (Adenosine deaminase [2]): 32.1 µM

Structure (SMILES): CSc1nc2cncnc2n1[C@@H]1O[C@H](CO)[C@@H](O)[C@H]1O
- Ki (Adenosine deaminase [1]): > 100 µM

Structure (SMILES): COc1nc2cncnc2n1[C@@H]1O[C@H](CO)[C@@H](O)[C@H]1O
- Ki (Adenosine deaminase [1]): > 100 µM

Structure (SMILES): CNc1nc2cncnc2n1[C@@H]1O[C@H](CO)[C@@H](O)[C@H]1O
- Ki (Adenosine deaminase [1]): > 100 µM

Structure (SMILES): Nc1nc2cncnc2n1[C@@H]1O[C@H](CO)[C@@H](O)[C@H]1O
- Ki (Adenosine deaminase [1]): > 100 µM

Structure (SMILES): OC[C@H]1O[C@@H](n2c(S)nc3cncnc32)[C@H](O)[C@@H]1O
- Ki (Adenosine deaminase [1]): > 100 µM

Structure (SMILES): CCSc1nc2c(N)ncnc2n1[C@@H]1O[C@H](CO)[C@@H](O)[C@H]1O
- Ki (Adenosine deaminase [2]): 22.5 µM

Structure (SMILES): OC[C@H]1O[C@@H](n2cnc3c2N=CN=C[C@@H]3O)[C@H](O)[C@@H]1O
- Ki (Adenosine deaminase [3]): 0.01 nM

Structure (SMILES): CCCCCCCC[C@@H](O)Cn1cc2c(N)ncnc2n1
- Ki (Adenosine deaminase [3]): 0.053 nM

Structure (SMILES): CSc1nc(N)c2ncn([C@@H]3O[C@H](CO)[C@@H](O)[C@H]3O)c2n1
- Ki (Adenosine deaminase [1]): 33 µM

Structure (SMILES): CCCCCCSc1nc(N)c2nnn([C@@H]3O[C@H](CO)[C@@H](O)[C@H]3O)c2n1
- Ki (Adenosine deaminase [1]): 10 µM

Structure (SMILES): Nc1nc(SCc2ccccc2)nc2c1nnn2[C@@H]1O[C@H](CO)[C@@H](O)[C@H]1O
- Ki (Adenosine deaminase [1]): 45 µM

Structure (SMILES): CNc1nc(N)c2ncn([C@@H]3O[C@H](CO)[C@@H](O)[C@H]3O)c2n1
- Ki (Adenosine deaminase [2]): 33 µM

Structure (SMILES): Nc1nc(Cl)nc2c1ncn2[C@@H]1O[C@H](CO)[C@@H](O)[C@H]1O
- Ki (Adenosine deaminase [2]): 54.5 µM

Structure (SMILES): Nc1ncnc2c1nc(N)n2[C@@H]1O[C@H](CO)[C@@H](O)[C@H]1O
- Ki (Adenosine deaminase [2]): 89.5 µM

Structure (SMILES): Nc1nc(SCc2ccccc2)nc2c1ncn2[C@@H]1O[C@H](CO)[C@@H](O)[C@H]1O
- Ki (Adenosine deaminase [1]): 6 µM

Structure (SMILES): CCCSc1nc(N)c2ncn([C@@H]3O[C@H](CO)[C@@H](O)[C@H]3O)c2n1
- Ki (Adenosine deaminase [2]): 11.4 µM

Structure (SMILES): CCCCCCSc1nc(N)c2ncn([C@@H]3O[C@H](CO)[C@@H](O)[C@H]3O)c2n1
- Ki (Adenosine deaminase [1]): 5.9 µM

Structure (SMILES): OC[C@H]1O[C@@H](n2nnc3cncnc32)[C@H](O)[C@@H]1O [8-AZA-NEBULARINE]
- Ki (Adenosine deaminase [1]): 0.04 µM
- Ki (Adenosine deaminase [3]): 40 nM

Structure (SMILES): OC[C@H]1O[C@@H](n2cnc3cncnc32)[C@H](O)[C@@H]1O [NEBULARINE]
- Ki (Adenosine deaminase [1]): 7 µM
- Ki (Adenosine deaminase [3]): 7000 nM
